{"source": "patent US20170196853A1", "about": "(AB SCIENCE, priority 2014, published 2017)", "key": {"LYN": {"target": "LYN (Homo sapiens, UniProt P07948)", "sequence (P07948 whole entry, species assumed)": "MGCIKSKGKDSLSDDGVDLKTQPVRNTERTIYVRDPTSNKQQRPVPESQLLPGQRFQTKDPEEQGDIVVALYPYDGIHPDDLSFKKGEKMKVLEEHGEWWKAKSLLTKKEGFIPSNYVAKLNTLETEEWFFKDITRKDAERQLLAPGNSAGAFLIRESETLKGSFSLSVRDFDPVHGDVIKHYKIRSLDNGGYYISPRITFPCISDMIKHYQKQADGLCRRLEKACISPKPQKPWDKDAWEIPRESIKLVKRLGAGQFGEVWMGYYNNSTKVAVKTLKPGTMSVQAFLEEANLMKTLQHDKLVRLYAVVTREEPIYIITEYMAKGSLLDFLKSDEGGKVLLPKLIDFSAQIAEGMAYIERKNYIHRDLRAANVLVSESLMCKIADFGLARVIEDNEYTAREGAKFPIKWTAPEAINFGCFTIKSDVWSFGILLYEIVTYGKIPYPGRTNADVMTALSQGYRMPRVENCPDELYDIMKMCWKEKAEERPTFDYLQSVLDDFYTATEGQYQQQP", "assay": "In vitro enzymatic phosphorylation assay, LYN", "type": "biochemical"}, "FYN": {"target": "FYN (Homo sapiens, UniProt P06241)", "sequence (P06241 whole entry, species assumed)": "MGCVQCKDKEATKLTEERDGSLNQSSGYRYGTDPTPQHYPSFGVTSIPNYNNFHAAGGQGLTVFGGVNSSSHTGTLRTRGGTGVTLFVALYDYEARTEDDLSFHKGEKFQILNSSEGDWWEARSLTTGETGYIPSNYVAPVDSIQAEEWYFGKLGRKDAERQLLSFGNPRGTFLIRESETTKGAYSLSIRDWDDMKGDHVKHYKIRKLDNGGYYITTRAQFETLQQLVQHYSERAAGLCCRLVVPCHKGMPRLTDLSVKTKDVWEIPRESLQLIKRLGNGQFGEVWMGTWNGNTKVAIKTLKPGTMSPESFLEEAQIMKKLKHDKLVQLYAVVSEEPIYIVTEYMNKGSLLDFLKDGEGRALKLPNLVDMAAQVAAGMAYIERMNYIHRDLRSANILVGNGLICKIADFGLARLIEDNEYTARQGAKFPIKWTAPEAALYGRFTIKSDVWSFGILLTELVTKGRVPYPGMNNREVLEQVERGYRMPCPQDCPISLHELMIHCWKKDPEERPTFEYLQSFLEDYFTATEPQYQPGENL", "assay": "In vitro enzymatic phosphorylation assay, FYN", "type": "biochemical"}}, "data": [{"smiles": "Cc1ccc(NC(=O)c2ccc(CN3CCN(C)CC3)cc2)cc1Nc1nc(-c2cccnc2)cs1", "note": "[masitinib, 4-(4-methylpiperazin-1-ylmethyl)-N-[4-methyl-3-(4-pyridin-3y1thiazol-2-ylamino)phenyl]benzamide]", "values": [{"measurement": "IC50", "setting": "LYN", "value": 220, "unit": "nM"}, {"measurement": "IC50", "setting": "FYN", "value": 240, "unit": "nM"}]}]}
